According to US20240417411A1, “COMPOUNDS AND METHODS FOR TREATMENT OF VIRAL INFECTIONS” (priority 2023, published 2024):
Like-named read-outs stand apart in the source and are kept apart here.

Columns and labels:
[1] = test system: SARS-CoV2-NLuc; assay: microbe, parasite or virus in culture; assay type: cell-based, SARS Coronavirus 2; conditions: Severe acute respiratory syndrome coronavirus 2, 48 h, read-out: SARS-CoV2 EC50 (nM)
[2] = test system: RSV-Luc5; assay: microbe, parasite or virus in culture; assay type: cell-based; conditions: human respiratory syncytial virus, NHBE, 72 h, read-out: RSV NHBE EC50 (nM)
[3] = in vitro; assay type: cell-based; conditions: human
How it was run: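 Uninfected MT4 cells cultured with compound 4–5 days at 37 °C, equilibrated to 25 °C, and viability read by CellTiter-Glo luminescence. Untreated and 2 μM puromycin-treated cells defined 100% and 0% viability; CC50, the concentration reducing viability by 50%, from non-linear regression.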

[4] = in vitro; assay type: in vitro ADME; conditions: human, s9, pH 7.4
How it was run: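 Test compounds at 2 μM final were incubated in a GI S9 reaction mixture, reactions being started by substrate addition. Diluted supernatants were quantified by LC/MS on a Q-Exactive using analyte/internal standard peak area ratios, with 0.1% formic acid water/acetonitrile gradient elution and 5 ppm mass tolerance.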

[5] = test system: Caco-2 cells (clone C2BBe1); conditions: human, Caco-2

| Structure (SMILES) | EC50 [1] [nM] | EC50 [2] [nM] | CC50 [3] [µM] | half-life at 2 μM [4] [s] | Human Plasma T1/2 (2 μM) [s] | Caco2 A to B [5] | Caco2 B to A [5] | Human Plasma T1/2 [s] |
| --- | --- | --- | --- | --- | --- | --- | --- | --- |
| CC(C)OC(=O)OC[C@H]1O[C@@](C#N)(c2ccc3c(N)ncnn23)[C@@H]2OC(=O)CCCCCC(=O)O[C@@H]21 [Compound C6, ((9aR,10R,12R,12aR)-12-(4-aminopyrrolo[2,1-f][1,2,4]triazin-7-yl)-12-cyano-2,8-dioxodecahydro-2H-furo[3,4-b][1,4]dioxacycloundecin-10-yl)methyl isopropyl carbonate] | > 50000 | 1460 | > 50 | 38.2 | 180 | 11.12 | 11.68 | – |
| CC(C)OC(=O)OC[C@H]1O[C@@](C#N)(c2ccc3c(N)ncnn23)[C@@H]2OC(=O)CCOCCC(=O)O[C@@H]21 [Compound C8, ((9aR,10R,12R,12aR)-12-(4-aminopyrrolo[2,1-f][1,2,4]triazin-7-yl)-12-cyano-2,8-dioxooctahydro-2H,6H-furo[3,4-b][1,4,8]trioxacycloundecin-10-yl)methyl isopropyl carbonate] | > 50000 | 3350 | > 50 | 41.2 | 180 | 1.56 | 10.63 | – |
| CC(C)OC(=O)OC[C@H]1O[C@@](C#N)(c2ccc3c(N)ncnn23)[C@@H]2OC(=O)CCC=CCCC(=O)O[C@@H]21 [Compound C9, ((10aR,11R,13R,13aR)-13-(4-aminopyrrolo[2,1-f][1,2,4]triazin-7-yl)-13-cyano-2,9-dioxo-2,3,4,7,8,9,10a,11,13,13a-decahydrofuro[3,4-b][1,4]dioxacyclododecin-11-yl)methyl isopropyl carbonate] | 27500 | 3050 | > 50 | 39.3 | 180 | 18.29 | 17.94 | – |
| COC(C)(C)COC(=O)OC[C@H]1O[C@@](C#N)(c2ccc3c(N)ncnn23)[C@@H]2OC(=O)CCCC(=O)O[C@@H]21 [Compound C22, ((7aR,8R,10R,10aR)-10-(4-aminopyrrolo[2,1-f][1,2,4]triazin-7-yl)-10-cyano-2,6-dioxooctahydro-2H-furo[3,4-b][1,4]dioxonin-8-yl)methyl (2-methoxy-2-methylpropyl) carbonate] | 5110 | 4850 | > 50 | 34.1 | 180 | 0.88 | 3.46 | – |
| CC(C)OC(=O)OC[C@H]1O[C@@](C#N)(c2ccc3c(N)ncnn23)[C@@H]2OC(=O)CCCCC(=O)O[C@@H]21 [Compound C7, ((8aR,9R,11R,11aR)-11-(4-aminopyrrolo[2,1-f][1,2,4]triazin-7-yl)-11-cyano-2,7-dioxodecahydrofuro[3,4-b][1,4]dioxecin-9-yl)methyl isopropyl carbonate] | > 50000 | 2730 | > 50 | 35.8 | 180 | 4.31 | 9.89 | – |
| N#C[C@@]1(c2ccc3c(N)ncnn23)O[C@H](COC(=O)OC2CCOC2)[C@H]2OC(=O)CCCC(=O)O[C@H]21 (stereo partly drawn) [Compound C23, ((7aR,8R,10R,10aR)-10-(4-aminopyrrolo[2,1-f][1,2,4]triazin-7-yl)-10-cyano-2,6-dioxooctahydro-2H-furo[3,4-b][1,4]dioxonin-8-yl)methyl (tetrahydrofuran-3-yl) carbonate] | 18400 | 19900 | > 50 | 34.1 | 180 | 0.66 | 4.38 | – |
| COC(=O)OC[C@H]1O[C@@](C#N)(c2ccc3c(N)ncnn23)[C@@H]2OC(=O)CCCC(=O)O[C@@H]21 [Compound C13, ((7aR,8R,10R,10aR)-10-(4-aminopyrrolo[2,1-f][1,2,4]triazin-7-yl)-10-cyano-2,6-dioxooctahydro-2H-furo[3,4-b][1,4]dioxonin-8-yl)methyl methyl carbonate] | 4100 | 30000 | > 50 | 36.8 | 180 | 2.1 | 5.18 | – |
| CCOC(=O)OC[C@H]1O[C@@](C#N)(c2ccc3c(N)ncnn23)[C@@H]2OC(=O)CCCC(=O)O[C@@H]21 [Compound C12, ((7aR,8R,10R,10aR)-10-(4-aminopyrrolo[2,1-f][1,2,4]triazin-7-yl)-10-cyano-2,6-dioxooctahydro-2H-furo[3,4-b][1,4]dioxonin-8-yl)methyl ethyl carbonate] | 5880 | 7940 | > 50 | 37.3 | – | 1.94 | 5.31 | 180 |
